Results on ten compounds are retold here after patent publication US9351492B2, “Anti-biofilm compositions and methods for using” (priority 2010, dated 2016).

Experiment [1] has as its system Staphylococcus aureus. Format: cell-based. To be noted: for Biofilm Formation MBIC50 / Biofilm Formation MBIC90: doses 25-2000 μM. The protocol: (§1) For all assays, overnight cultures grown in the appropriate medium were used to inoculate fresh medium at an initial cell density of 5×10^5 colony-forming units (CFU) per ml. Cell density was confirmed by colony count of aliquots taken immediately following inoculation of the test strain.
Biofilm formation was assessed using a microtiter plate assay as previously described (Beenken et al., 2003, Infection and Immunity 71:4206-11) except that 2-fold serial dilutions (0.0125-0.4 mg/ml, 0.0125-0.4% excipient in solution) of 220D-F2 were included in the BM. Controls for each experiment were the wild-type strain and its isogenic sarA mutant assayed in the absence of 220D-F2. The minimum biofilm inhibiting concentration (MBIC) was defined as the lowest concentration at which 220D-F2 inhibited biofilm formation to a level ≧90% (for MBIC90) or ≧50% (for MBIC50) than that observed with the parent strain in the absence of 220D-F2. […]
(§2) Ten commercially available phytochemical constituents reported in the literature to have been isolated from R. ulmifolius (Table 4) were purchased and examined for their prophylactic efficacy in the prevention of biofilm formation using a static microtiter plate biofilm assay. Ferulic acid, kaempferol, ursolic acid, quercetin dehydrate, caffeic acid, ellagic acid, and oleanolic acid were purchased from MP BioMedicals (Solon, Ohio, USA); quercetin-3-O-glucuronide and tiliroside from Chromadex (Irvine, Calif., USA); and gallic acid from Acros Organics (NJ, USA). Compounds were tested for growth and biofilm inhibitory activity at doses ranging from 25-2000 μM. To determine the minimum inhibitory concentration (MIC) for each fraction, strains of S. aureus were grown in 37° C. in cation adjusted Muller-Hinton broth (CAMHB). MIC and MBC were determined following Clinical and Laboratory Standards Institute […] broth microdilution guidelines. Briefly, strains were inoculated into 0.1 ml CAMBH containing varying concentrations of the compound. For MIC, optical density (OD600) was assessed immediately after inoculation and again after 18 hours using Biotek Synergy II microplate reader. The MIC was defined as the lowest concentration that inhibited growth to a level greater than or equal to 90% (for MIC90) or greater than or equal to 50% (for MIC50) by comparison to untreated cultures.

For experiment [2], the system named is Staphylococcus aureus. In words: MIC, CLSI broth microdilution (growth inhibition). Format: cell-based. Particulars: doses 25-2000 μM. As for the experimental part: as §1
Briefly, test strains were inoculated into 0.1 ml CAMHB containing 220D-F2 at concentrations ranging from 0.138-4 mg/ml (0.138-4% excipient in solution). For the MIC, optical density (OD600) was assessed immediately after inoculation and again after 18 hrs using a Biotek Synergy II microplate reader. Corrections for extract color, which can alter the OD output, were done as previously described (Quave et al., 2008, supra). […] The MBC was determined by taking colony counts of aliquots taken from each well after 24 hrs and it was defined as the lowest concentration at which the initial density of viable cells was reduced by ≧90% (for MBC90) or ≧50% (for MBC50) by comparison to the untreated control. […] For these experiments, 10 ml cultures were grown at 37° C. in 25 ml Erlenmeyer flasks in BM with constant shaking (200 rpm).
as §2
(In general: Dilution methods test growth across graded concentrations, often in twofold steps.)

For experiment [3], the system named is Staphylococcus aureus. To be noted: Durig et al. 2010; cited from earlier work.
A further experiment has as its system UAMS-1. The experiment in a line: in vitro catheter assay, established biofilm. To be noted: catheters colonized without extract; 220D-F2 0.2 mg/ml, daptomycin 10 μg/ml (10× breakpoint MIC). The class given is cell-based, Staphylococcus aureus.

Method for UAMS-1: UAMS-1 was grown on 1 cm catheter segments as previously described (Weiss et al., 2009b, Antimicrobial Agents and Chemotherapy 53:2475-2482). After 24 hrs, the BM medium was replaced with BM medium containing 220D-F2 (0.2 mg/ml) and/or daptomycin. […] The medium was replaced in its entirety at 24 hr intervals for 7 days. The therapeutic response of UAMS-1 to daptomycin in the presence of 220D-F2 was assessed by comparison to UAMS-929 grown in the absence of 220D-F2 but exposed to daptomycin as previously described (Weiss et al., 2009a, 2009b, supra). […] After each 24 h interval, catheters were removed from each treatment group and rinsed with PBS before removing bacteria for plate counts as previously described (Weiss et al., 2009a, 2009b, supra).
This assay was also used to assess the prophylactic activity of 220D-F2. In this case, the test compounds were added to the BM at the time of inoculation rather than after a 24 hr colonization period. After 24 hr incubation in the presence of 220D-F2, the catheters were processed for plate counts as described above.
Catheters were colonized with UAMS-1 in the absence of any extract. […] The antibiotics tested were daptomycin, clindamycin, vancomycin, and oxacillin.

In the case of `O=C(O)/C=C/c1ccc(O)c(O)c1` [Caffeic Acid], in the experiment with Staphylococcus aureus [1], the “Biofilm Formation MBIC50” value is >2000 µM and the “Biofilm Formation MBIC90” value is >2000 µM. Besides, in the experiment on Staphylococcus aureus [2], the “Growth MBIC50” value is >2000 µM and the “Growth MBIC90” value is >2000 µM.
For the compound `O=c1oc2c(O)c(O)cc3c(=O)oc4c(O)c(O)cc1c4c23` [Ellagic Acid], the “biofilm inhibition of S. aureus, previous studies” value in the experiment on Staphylococcus aureus [3] is “not an effective biofilm inhibitor”. In addition, the “anti-biofilm activity at doses well below any growth inhibitory effects” value with Staphylococcus aureus [1] (among 10 phytochemicals) was “meaningful anti-biofilm activity”. In addition, in the experiment with Staphylococcus aureus [1], the “Biofilm Formation MBIC50” value turned out to be 38 ± 13 µM and the “Biofilm Formation MBIC90” value was determined as 763 ± 32 µM. Moreover, in the experiment on Staphylococcus aureus [2], the “Growth MBIC50” value is >2000 µM and the “Growth MBIC90” value is >2000 µM.
For the compound `O=C(O)c1cc(O)c(O)c(O)c1` [Gallic Acid], in the experiment with Staphylococcus aureus [1], the “Biofilm Formation MBIC50” value came out at 713 ± 32 µM and the “Biofilm Formation MBIC90” value was found to be 2010 ± 10 µM. Moreover, in the experiment with Staphylococcus aureus [2], the “Growth MBIC50” value is >2000 µM and the “Growth MBIC90” value is >2000 µM.
Take `O=c1c(O)c(-c2ccc(O)cc2)oc2cc(O)cc(O)c12` [Kaempferol]: in the experiment on Staphylococcus aureus [1], the “Biofilm Formation MBIC50” value was found to be 560 ± 53 µM and the “Biofilm Formation MBIC90” value is 773 ± 6 µM. For the same compound, in the experiment on Staphylococcus aureus [2], the “Growth MBIC50” value came out at 1640 ± 10 µM and the “Growth MBIC90” value came out at 1787 ± 42 µM.
With `O=c1c(O)c(-c2ccc(O)c(O)c2)oc2cc(O)cc(O)c12` [Quercetin Dihydrate], in the experiment with Staphylococcus aureus [1], the “Biofilm Formation MBIC50” value is 543 ± 21 µM and the “Biofilm Formation MBIC90” value stood at 1987 ± 21 µM. For the same compound, in the experiment on Staphylococcus aureus [2], the “Growth MBIC50” value amounted to 1720 ± 20 µM and the “Growth MBIC90” value was found to be 1903 ± 29 µM.
With `O=C(O)[C@H]1OC(Oc2c(-c3ccc(O)c(O)c3)oc3cc(O)cc(O)c3c2=O)[C@H](O)[C@@H](O)[C@@H]1O` (stereo partly drawn) [Quercetin-3-O-glucuronide], in the experiment with Staphylococcus aureus [1], the “Biofilm Formation MBIC50” value is >2000 µM and the “Biofilm Formation MBIC90” value is >2000 µM. Moreover, in the experiment on Staphylococcus aureus [2], the “Growth MBIC50” value was >2000 µM and the “Growth MBIC90” value is >2000 µM.
For `O=C(/C=C/c1ccc(O)cc1)OC[C@H]1O[C@@H](Oc2c(-c3ccc(O)cc3)oc3cc(O)cc(O)c3c2=O)[C@H](O)[C@@H](O)[C@@H]1O` [Tiliroside], in the experiment on Staphylococcus aureus [1], the “Biofilm Formation MBIC50” value is >2000 µM and the “Biofilm Formation MBIC90” value is >2000 µM. In the experiment on Staphylococcus aureus [2], the “Growth MBIC50” value was >2000 µM and the “Growth MBIC90” value was >2000 µM.
On to `CCCCCCCCCC(=O)N[C@@H](Cc1c[nH]c2ccccc12)C(=O)N[C@H](CC(N)=O)C(=O)N[C@@H](CC(=O)O)C(=O)N[C@@H]1C(=O)NCC(=O)N[C@@H](CCCN)C(=O)N[C@@H](CC(=O)O)C(=O)N[C@H](C)C(=O)N[C@@H](CC(=O)O)C(=O)NCC(=O)N[C@H](CO)C(=O)N[C@@H]([C@H](C)CC(=O)O)C(=O)N[C@@H](CC(=O)c2ccccc2N)C(=O)O[C@@H]1C` [daptomycin], for which the “average colony counts at day 7” value in the experiment with UAMS-1 was 1.01×10^7 CFU/catheter.
For Oleanolic Acid, in the experiment with Staphylococcus aureus [1], the “Biofilm Formation MBIC50” value is 190 ± 26 µM and the “Biofilm Formation MBIC90” value was 940 ± 35 µM. Besides, in the experiment with Staphylococcus aureus [2], the “Growth MBIC50” value worked out at 1077 ± 15 µM and the “Growth MBIC90” value is 1613 ± 31 µM.
As for Ursolic Acid, in the experiment with Staphylococcus aureus [1], the “Biofilm Formation MBIC50” value is 207 ± 32 µM and the “Biofilm Formation MBIC90” value is 397 ± 6 µM. Further, in the experiment with Staphylococcus aureus [2], the “Growth MBIC50” value is 640 ± 46 µM and the “Growth MBIC90” value was 763 ± 32 µM.
